Assay results as given in publication PMC7590976, “Detection of Active Granzyme A in NK92 Cells with Fluorescent Activity-Based Probe” (Journal of Medicinal Chemistry, 2020).

Legend:
GrM = experiment: Residual activity assay, GrM; format: biochemical, human; conditions: 74 nM GrM preincubated with 10 μM compound 30 min 37 °C; substrate Ac-Lys-Val-Pro-Leu-ACC
Experimental: (§1) We wondered whether the selectivity of our SK15-based molecules for GrA would be maintained by substrate structure modifications, such as replacing ACC with a diphenyl phosphonate warhead and changing the N-terminus from acetyl to the cyanine derivative Cy5.
(§2) As a control, enzymes without inhibitor and probe were tested.

GrB = target: T1, GrB (Homo sapiens, UniProt P10144); experiment: Residual activity assay, GrB; format: biochemical; conditions: 18 nM GrB preincubated with 10 μM compound 30 min 37 °C; 200 μM GrBref
T1 construct: made in house; host or cells: Pichia pastoris
T1 sequence (P10144 21-247): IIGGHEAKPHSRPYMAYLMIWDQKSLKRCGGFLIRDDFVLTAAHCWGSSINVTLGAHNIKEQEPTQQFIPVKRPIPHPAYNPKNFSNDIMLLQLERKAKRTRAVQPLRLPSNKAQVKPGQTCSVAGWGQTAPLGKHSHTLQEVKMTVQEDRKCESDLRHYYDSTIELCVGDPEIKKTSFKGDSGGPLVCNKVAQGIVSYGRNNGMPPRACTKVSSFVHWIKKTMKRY
Experimental: as §1, §2

GrA [1] = target: T2, GrA (Homo sapiens, UniProt P12544); experiment: Second-order inhibition rate constant kobs/I toward GrA, pseudo-first-order conditions; format: biochemical; conditions: GrA; versus 2000 M^–1 s^–1
T2 construct: made in house; host or cells: Pichia pastoris
T2 sequence (P12544 29-262): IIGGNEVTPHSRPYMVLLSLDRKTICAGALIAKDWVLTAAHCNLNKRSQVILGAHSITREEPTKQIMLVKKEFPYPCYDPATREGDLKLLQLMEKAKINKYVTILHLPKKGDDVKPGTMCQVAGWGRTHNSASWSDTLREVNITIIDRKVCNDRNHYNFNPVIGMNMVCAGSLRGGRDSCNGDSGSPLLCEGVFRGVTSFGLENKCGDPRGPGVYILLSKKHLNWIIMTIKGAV
Experimental: We calculated the apparent second-order rate constants for inhibition (kobs(app)/I) of GrA-mediated SK15I under pseudo first-order conditions by serially diluting the new inhibitor in the range of 714–333 nM with a constant optimal substrate (SK15) concentration of 10 μM (Figure 3B).
The second-order inhibition rate constant (kobs/I expressed in M^–1 s^–1) toward GrA was measured under pseudo-first-order kinetic conditions. Ten microliters of substrate (SK15) was mixed with varying inhibitor or probe concentrations and incubated at 37 °C for 15 min. […] Experiments are presented as the average of at least three experiments with standard deviation.

GrA [2] = experiment: Residual activity assay, GrA preinhibited with SK15I or SK15.5; format: biochemical, human; conditions: substrate SK15; preincubation 30 min, 37 °C
Experimental: as §1, §2

hNE = experiment: Residual activity assay, hNE; format: biochemical, human; conditions: 3.3 nM hNE preincubated with 10 μM compound 30 min 37 °C; substrate Ac-Arg(NO)2-Glu(Bzl)-Oic-Abu-ACC
Experimental: as §1, §2

GrA in NK92 cells = experiment: SK15.5 cell membrane permeability assay / GrA labeling in live NK92 cells; format: cell-based, human; conditions: SK15I 10 μM, 1 h, prior to 1 μM SK15.5
Experimental: (B) SK15.5 probe cell permeability. […] The results represent two biological replicates.
We noticed a strongly labeled species within 30 min, and the intensity increased until 2 h (Figure 5B). […] As an additional control, immunolabeling was performed and confirmed the selective binding of the probe with GrA (for full size blots, please see Figure S3).
As a control, GrA was preinhibited with 10 μM (final concentration) SK15I and incubated for 1 h at 37 °C, and untreated samples were simultaneously incubated. At the end of every time point, the cells were centrifuged, washed twice with DPBS, centrifuged and treated with 100 μL of 1× SDS/DTT solution. Afterward, the samples were sonicated (10 kHz for 10 s) and loaded onto a 4–12% Bis-Tris 10-well gel (Invitrogen). SDS-PAGE was run at 165 V for 37 min, and membrane transfer (10 V, 60 min) was subsequently performed.

MDA-MB-231 cells = conditions: MDA-MB-231, 24 h, MTS at 490 nm, 1 nM to 10 μM tested, duplicate
GrK = target: T3, GrK (Homo sapiens, UniProt P49863); experiment: Residual activity assay, GrK; format: biochemical; conditions: 488 nM GrK preincubated with 10 μM compound 30 min 37 °C; 200 μM GrKref
T3 construct: made in house; host or cells: Pichia pastoris
T3 sequence (P49863 27-264): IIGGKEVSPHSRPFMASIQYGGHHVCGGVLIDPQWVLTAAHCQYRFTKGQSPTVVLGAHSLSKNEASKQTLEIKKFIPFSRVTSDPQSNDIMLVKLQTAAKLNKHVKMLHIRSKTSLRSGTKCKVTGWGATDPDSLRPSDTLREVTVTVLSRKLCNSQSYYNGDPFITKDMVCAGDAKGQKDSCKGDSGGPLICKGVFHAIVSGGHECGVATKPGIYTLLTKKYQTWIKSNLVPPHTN
Experimental: as §1, §2

PR3 = experiment: Residual activity assay, PR3; format: biochemical; conditions: 3.4 nM PR3 preincubated with 10 μM compound 30 min 37 °C; substrate Ac-Glu(O-Bzl)-Lys(Ac)-Hyp(Bzl)-Nva-ACC
Experimental: as §1, §2

GrA [3] = target: T2, GrA; experiment: In-gel detection of recombinant GrA with SK15.5 (SDS-PAGE); format: binding; conditions: SK15I 1 μM, 1 h, 37 °C, then SK15.5 500 nM 1 h
Experimental: Next, we tested the utility of our fluorescent probe for the in-gel detection of active GrA in test samples. […] We then ran a simple SDS-PAGE assay to detect labeled GrA (Figure 4A). […] In our hands, the probe bound to the enzyme, as indicated by the fluorescent 35 kDa species, after the minimal incubation time (5 min). […] The optimal concentration was 500 nM (strong signal) (Figure 4B).
(A) Incubation time of SK15.5 with enzyme optimization. […] (D) GrA in-gel detection in NK92 cell lysates. […] The results are representative of at least 2 replicates.
In contrast to the closely related GrB, GrH, GrM, and GrK, GrA is a homodimer formed by stable disulfide-linked subunits.[26] Since the subunits are oriented in opposite directions, the surrounding area may form an exosite.[26]
In the incubation time optimization assay, the enzyme and probe concentrations were constant (250 nM), and the incubation time ranged from 0 to 120 min. […] Enzyme was incubated with probe in a volume of 80 μL, followed by the reduction with 40 μL of 3 × SDS/DTT for 5 min at 95 °C. Samples were centrifuged (3 min, 4500g), and 40 μL of each sample was run on 4–12% Bis-Tris 10-well gels (Invitrogen). The first well was loaded with 2 μL of the protein marker PageRuler Plus Prestained Protein Ladder (Thermo Scientific). Electrophoresis was conducted at 165 V for 37 min at room temperature. […] Total sample volume was 80 μL, to which 40 μL of 3× SDS/DTT was added and boiled for 5 min at 95 °C. Samples were centrifuged (3 min, 4500g), and 40 μL of each sample was run on 4–12% Bis-Tris 10-well gels (Invitrogen). Each form of the enzyme without SK15.5 and probe itself were run as controls. The first well was loaded with 2 μL of protein marker PageRuler Plus Prestained Protein Ladder (Thermo Scientific). Electrophoresis and membrane transfer were conducted in the same manner as above.

Substance: MeOSuc-Tic-Gly-Oic-Arg^P(OPh)2 [SK15I]
- inhibition of GrM (GrM): less than 20%
- inhibition of GrB (GrB): less than 20%
- kobs/I relative to the reference inhibitor (GrA [1]): approximately 85 fold
- residual GrA activity after preinhibition (in words) (GrA [2]): completely blocked
- inhibition of hNE (hNE): less than 20%
- effect of inhibitor pretreatment on SK15.5 probe binding in live cells (in words) (GrA in NK92 cells): substantial decrease in probe binding
- concentration above which cytotoxic (MDA-MB-231 cells): > 10 µM
- inhibition of GrK (GrK): less than 20%
- inhibition of PR3 (PR3): less than 20%
- effect of preinhibition with inhibitor on SK15.5 probe binding to GrA (in words) (GrA [3]): prevented probe binding
